Ten molecules from patent US8476451B2 (priority 2007, dated 2013) can be followed below.

≈ marks a conversion by molar mass, not a printed value.

Data set [1] relates to L929 mouse fibroblast cells. Description: Growth inhibition, MTT assay, L929. Type of data set: cell-based. As to conditions: for Cytotoxicity / activity relative to tubulysin D, in words: statement on Table 2 cell lines. The method, then:
(§1) Cell lines were obtained from the American Type Culture Collection (ATCC) and the German Collection of Microorganisms and Cell Cultures (DSMZ). All cell lines were cultivated under conditions recommended by their respective depositors. Growth inhibition was measured in microtiter plates. Aliquots of 120 μl of the suspended cells (50,000/mL) were given to 60 μL of a serial dilution of the inhibitor and incubated at 37° C. and 10% CO2. After 5 days, when control cells had grown to confluence state, the metabolic activity in each well was determined using an MTT assay.
In general terms: Formazan colour is commonly taken as a measure of viable cells.

Data set [2] deals with SW-480 human colon adenocarcinoma cells. Description: Growth inhibition, MTT assay, SW-480. In kind it is cell-based. Particulars: for Activity relative to tubulysin D in SW-480, in words: colon cancer cell line SW-480. The method, then:
as §1

Data set [3] concerns KB-3-1 human cervix carcinoma cells. Description: Growth inhibition, MTT assay, KB-3-1. In kind it is cell-based. As to conditions: KB 3-1, 120 h; human cervix carcinoma (DSMZ ACC 158); MTT after 5 days; read-out: IC50 (ng/mL) KB-3-1. The method, then:
as §1

Data set [4] is described as follows: Growth inhibition, MTT assay, L929. In kind it is cell-based, Mouse. Particulars: mouse, L929 mouse fibroblast cells; cell line not given; read-out: Cytotoxicity (text, refers to Table 2). The method, then: as §1

On to `CC[C@H](C)[C@H](NC(=O)[C@H]1CCCCN1C)C(=O)N(COC(=O)CC(C)C)[C@H](C[C@@H](OC(C)=O)c1nc(C(=O)NCCc2ccccc2)cs1)C(C)C` [Analogue 2, 3-methyl-butyric acid ({1-[2-acetoxy-2-(4-phenethylcarbamoyl-thiazol-2-yl)-ethyl]-2-methyl-propyl}-{3-methyl-2-[(1-methyl-piperidine-2-carbonyl)-amino]-pentanoyl}-amino)-methyl ester], for which the “Cytotoxicity / activity relative to tubulysin D, in words” value in data set [1] is “cytoxicity comparable to the parent tubulysin”.

As for `CC[C@H](C)[C@H](NC(=O)[C@H]1CCCCN1C)C(=O)N(COC(=O)CC(C)C)[C@H](C[C@@H](OC(C)=O)c1nc(C(=O)NCCCC(=O)O)cs1)C(C)C` [Analogue 3, 3-Methyl-butyric acid ((1-{2-acetoxy-2-[4-(3-carboxy-propylcarbamoyl)-thiazol-2-yl]-ethyl}-2-methyl-propyl)-{3-methyl-2-[(1-methyl-piperidine-2-carbonyl)-amino]-pentanoyl}-amino)-methyl ester], the “Cytotoxicity / activity relative to tubulysin D, in words” value in data set [1] was “cytoxicity comparable to the parent tubulysin”. Take `CC[C@H](C)[C@H](NC(=O)[C@H]1CCCCN1C)C(=O)N(COC(=O)CC(C)C)[C@H](C[C@@H](OC(C)=O)c1nc(C(=O)NC)cs1)C(C)C` [Analogue 4, 3-methyl-butyric acid ({1-[2-acetoxy-2-(4-methylcarbamoyl-thiazol-2-yl)-ethyl]-2-methyl-propyl}-{3-methyl-2-[(1-methyl-piperidine-2-carbonyl)-amino]-pentanoyl}-amino)-methyl ester]: the “Cytotoxicity / activity relative to tubulysin D, in words” value in data set [1] is “maintained good activity”. The same measure, in the same setting: the same measure for `CC[C@H](C)[C@H](NC(=O)[C@H]1CCCCN1C)C(=O)N(COC(=O)CC(C)C)[C@H](C[C@@H](OC(C)=O)c1nc(C(=O)O)cs1)C(C)C` [Analogue 5, 2-[1-acetoxy-4-methyl-3-((3-methyl-butyryloxymethyl)-{3-methyl-2-[(1-methyl-piperidine-2-carbonyl)-amino]-pentanoyl}-amino)-pentyl]-thiazole-4-carboxylic acid]: “maintained good activity”. Consider `CC[C@H](C)[C@H](NC(=O)CN(C)C)C(=O)N(COC(=O)CC(C)C)[C@H](C[C@@H](OC(C)=O)c1nc(C(=O)N[C@@H](Cc2ccccc2)C[C@H](C)C(=O)O)cs1)C(C)C` [Analogue 6, 4-[(2-{1-acetoxy-3-[[2-(2-dimethylamino-acetylamino)-3-methyl-pentanoyl]-(3-methyl-butyryloxymethyl)-amino]-4-methyl-pentyl}-thiazole-4-carbonyl)-amino]-2-methyl-5-phenyl-pentanoic acid], for which the “Activity relative to tubulysin D in SW-480, in words” value in data set [2] is reported as “more active than tubulysin D”. Also, the “Cytotoxicity / activity relative to tubulysin D, in words” value in data set [1] is “essentially equipotent with tubulysin D”.

Consider `CC[C@H](C)[C@H](NC(C)=O)C(=O)N(COC(=O)CC(C)C)[C@H](C[C@@H](OC(C)=O)c1nc(C(=O)N[C@@H](Cc2ccccc2)C[C@H](C)C(=O)O)cs1)C(C)C` [Analogue 7], for which, in data set [1], the “Cytotoxicity / activity relative to tubulysin D, in words” value is given as “drastic decrease in activity”.

For `CC[C@H](C)[C@H](N=[N+]=[N-])C(=O)N(COC(=O)CC(C)C)[C@H](C[C@@H](OC(C)=O)c1nc(C(=O)N[C@@H](Cc2ccccc2)C[C@H](C)C(=O)O)cs1)C(C)C` [Analogue 8, 4-[(2-{1-acetoxy-3-[(2-azido-3-methyl-pentanoyl)-(3-methyl-butyryloxymethyl)-amino]-4-methyl-pentyl}-thiazole-4-carbonyl)-amino]-2-methyl-5-phenyl-pentanoic acid], the “Cytotoxicity / activity relative to tubulysin D, in words” value in data set [1] is “drastic decrease in activity”. As for `CC[C@H](C)[C@H](NC(=O)[C@H]1CCCCN1C)C(=O)N(COC(=O)CC(C)C)[C@H](C[C@@H](O)c1nc(C(=O)N[C@@H](Cc2ccccc2)C[C@H](C)C(=O)O)cs1)C(C)C` [Analogue 9], the IC50 was found to be 0.057 ng/mL (≈ 0.0725 nM) in data set [2] (SW480, 120 h, human colon adenocarcinoma (ATCC CCL-228), MTT after 5 days, read-out: IC50 (ng/mL) SW-480); 0.25 ng/mL (≈ 0.318 nM) in data set [1] (L929, 120 h, mouse fibroblasts (DSMZ ACC 2), MTT after 5 days, read-out: IC50 (ng/mL) L929); 0.22 ng/mL (≈ 0.28 nM) in data set [3]. Also, the “Cytotoxicity / activity relative to tubulysin D, in words” value in data set [1] is on record as “minimal drop in cytotoxicity relative to the natural product”. Take `CC[C@H](C)[C@H](NC(=O)[C@H]1CCCCN1C)C(=O)N(C)[C@H](C[C@@H](OC(C)=O)c1nc(C(=O)N[C@@H](Cc2ccccc2)C[C@H](C)C(=O)O)cs1)C(C)C` [Analogue 10, 4-({2-[1-Acetoxy-4-methyl-3-(methyl-{3-methyl-2-[(1-methyl-piperidine-2-carbonyl)-amino]-pentanoyl}-amino)-pentyl]-thiazole-4-carbonyl}-amino)-2-methyl-5-phenyl-pentanoic acid]: the “Activity relative to tubulysin D in SW-480, in words” value in data set [2] was “more active than tubulysin D”. On to `CC[C@H](C)[C@H](NC(=O)[C@H]1CCCCN1C)C(=O)N(C)[C@H](C[C@@H](OC(C)=O)c1nc(C(=O)NC)cs1)C(C)C` [Analogue 11, acetic acid 4-methyl-1-(4-methylcarbamoyl-thiazol-2-yl)-3-(methyl-{3-methyl-2-[(1-methyl-piperidine-2-carbonyl)-amino]-pentanoyl}-amino)-pentyl ester], for which the IC50 at 5 days in data set [4] is 2 ng/mL (≈ 3.62 nM).
